Source: article PMC12683216, “Using High‐Throughput Screening to Identify Crosslinking Peptides That Control Cell‐Mediated Matrix Degradation” (Advanced Healthcare Materials, 2025)
Where a SMILES comes first, the peptide text is derived from it. [ ]: non-standard residue; d: D form. βAla = NCCC(=O)O

Columns and labels:
hMSCs = assay: Quantification of peptide and hydrogel degradation in cell-laden PEG hydrogels (Cy3/FAM fluorescence); assay type: in vitro ADME, human
Source text: (§1) Next we designed systems to quantify the amount of crosslinking peptide degradation and bulk hydrogel degradation during culture. We synthesized both the KLVAD‐LM peptide and the PanMMP peptide with an N‐terminal Cy3 and a C‐terminal azide to click into the PEG hydrogel network, and also coupled fluorescein (FAM) to the hydrogel using a non‐degradable linker (Figure 5A). Proteolytic cleavage of the crosslinking peptides will liberate the Cy3 from the PEG hydrogel, and bulk erosion of the hydrogel reduces the amount of PEG and FAM. At desired time points, the gels were completely degraded with trypsin, and the fluorescence intensity of Cy3 and FAM was measured to quantify peptide and hydrogel degradation during culture (Figure 5B).
(§2) Figure 5 The rate of degradation of crosslinking peptides in the hydrogels was quantified using fluorescence. A) A fraction of PEG arms were functionalized with PanMMP and KLVAD‐LM peptides that were labeled with […] on their N‐terminus and conjugated to the PEG hydrogel matrix on their C‐terminus to quantify crosslinker degradation. Fluorescein (FAM) was also conjugated to the hydrogel through non‐degradable linkers to quantify bulk hydrogel degradation. […] The amounts of remaining Cy3 and FAM were quantified using fluorescence spectroscopy. […]

hUVECs = assay: as above; assay type: in vitro ADME, human
Source text: as §1, §2

degradation within hydrogels relative to that seen with the PanMMP peptide, hMSCs (hMSCs): 40–60%
degradation within hydrogels relative to that seen with the PanMMP peptide, hUVECs (hUVECs): 40–60%
SMILES: CSCC[C@H](NC(=O)[C@H](CC(C)C)NC(=O)[C@H](CC(=O)O)NC(=O)[C@H](C)NC(=O)[C@@H](NC(=O)[C@H](CC(C)C)NC(=O)[C@H](CCCCN)NC(=O)CCNC(C)=O)C(C)C)C(=O)N[C@@H](C)C(=O)N[C@@H](CO)C(=O)N[C@@H](C)C(=O)N[C@@H](CCC(=O)O)C(=O)NCCC(N)=O [KLVAD-LM] (Ac-[βAla]KLVADLMASAE[βAla]-NH2)
